Test results taken from patent US20180318311A1, “TRICYCLIC 2-QUINOLINONES AS ANTIBACTERIALS” (priority 2017, published 2018).
In brackets after ≈: the same amount, converted by molar mass. Like-named read-outs stand apart in the source and are kept apart here.

Key:
Format in all cases: cell-based
[1] = tested on: S. aureus NB01080 fluoroquinolone-resistant clinical isolate; assay: MIC by broth microdilution, S. aureus NB01080; conditions: Staphylococcus aureus, CAMHB, 35° C., 20 hours, read-out: Antibacterial activity (MIC) NB01080
Experimental: (§1) Bacterial isolates were cultivated from −80° C. frozen stocks by overnight passages at 35° C. in ambient air on Mueller-Hinton agar plates (MHA, Becton Dickinson, Franklin Lakes, NB) with the exception of S. pneumoniae which was grown overnight at 35° C. in the presence of 5% CO2 on blood agar plates (tryptic soy agar with 5% sheep blood (Thermo Scientific, Waltham, Mass.) . The following quality control and wild type strains were obtained from the American Type Culture Collection (ATCC; Rockville, Md.) and are coded in the Novartis strain collection as indicated: E. coli ATCC 25922 (NB27001), E. faecalis ATCC 29212 (NB04001), S. aureus ATCC 49951 (NB01006) and S. pneumoniae ATCC […] (NB07001). […] P. aeruginosa NB52019, obtained from Queen's University (Kingston, Ontario, Canada), is the wild-type PAO1 strain.
(§2) Minimal Inhibitory Concentrations (MIC) were determined by the broth microdilution method in accordance with Clinical and Laboratories Institute (CLSI) guidelines. In brief, fresh bacterial overnight cultures were re-suspended in sterile saline, adjusted to a 0.5 McFarland turbidity standard and then diluted to yield a final inoculum of approximately 5×10^5 colony-forming units (CFU)/mL. All bacterial suspensions were prepared in cation adjusted Mueller-Hinton Broth (CAMHB; Becton Dickinson, Franklin Lakes, N.J.;) with the exception of S. pneumoniae which was prepared in CAMHB supplemented with 5% lysed horse blood (Hardy Diagnostics, Santa Maria, Calif.). Two-fold serial dilutions of compounds were prepared in 100% dimethyl sulfoxide (DMSO) at 100-fold the highest final assay concentration; the resulting dilution series of compounds were diluted 1:10 with sterile water. Ten μL of the drug dilution series in 10% DMSO was transferred to microtiter wells and 90 μL of bacterial suspension was inoculated into the wells. All inoculated microdilution trays were incubated in ambient air at 35° C. for 20 hours. Following incubation, assay plates were read in a microtiter plate reader at 600 nm and visually inspected to confirm the MIC endpoint well with the OD value. The lowest concentration of the compound that prevented visible growth was recorded as the MIC (in μg/mL).

[2] = tested on: P. aeruginosa NB52019, wild-type PAO1 strain; assay: MIC by broth microdilution, P. aeruginosa NB52019; conditions: Pseudomonas aeruginosa, CAMHB, 35° C., 20 hours, read-out: Antibacterial activity (MIC) NB52019
Experimental: as §1, §2

[3] = tested on: S. aureus ATCC 49951 (NB01006); assay: MIC by broth microdilution, S. aureus NB01006; conditions: Staphylococcus aureus, ATCC49951, CAMHB, 35° C., 20 hours, read-out: Antibacterial activity (MIC) NB01006
Experimental: as §1, §2

[4] = tested on: S. aureus NB01006-AVR005, gyrA (S84L), grlA (580F) and grlB (E471K); assay: microbe, parasite or virus in culture; conditions: Staphylococcus aureus, 20 h, read-out: Antibacterial activity (MIC) NB01006-AVR005
Experimental: as §1, §2

[5] = tested on: S. pneumoniae ATCC 25922 (NB07001); assay: MIC by broth microdilution, S. pneumoniae NB07001; conditions: Streptococcus pneumoniae, read-out: Antibacterial activity (MIC) NB07001
Experimental: as §1, §2

[6] = tested on: E. coli ATCC 25922 (NB27001); assay: MIC by broth microdilution, E. coli NB27001; conditions: Escherichia coli, ATCC25922, CAMHB, 35° C., 20 hours, read-out: Antibacterial activity (MIC) NB27001
Experimental: as §1, §2

[7] = tested on: E. faecalis ATCC 29212 (NB04001); assay: MIC by broth microdilution, E. faecalis NB04001; conditions: Enterococcus faecalis, ATCC29212, CAMHB, 35° C., 20 hours, read-out: Antibacterial activity (MIC) NB04001
Experimental: as §1, §2

[8] = ATCC25922, S. pneumoniae, CAMHB supplemented with 5% lysed horse blood, 35° C., 20 hours

Row | Compound | MIC [1] [µg/mL] | MIC [2] [µg/mL] | MIC [3] [µg/mL] | MIC [4] [µg/mL] | MIC ([5]; ATCC25922, 20 h) [µg/mL] | MIC [6] [µg/mL] | MIC [7] [µg/mL] | MIC [5, 8] [µg/mL]
1 | C[C@H]1COc2c(N3CC4CCC(N)C4C3)c(F)cc3cc(C(=O)O)c(=O)n1c23 (single isomer, unassigned) [Example 1.28] | > 32 | > 32 | 1 to 32 (≈ 2.58 to 82.6 µM) | > 32 | < 1 | > 32 | 1 to 32 (≈ 2.58 to 82.6 µM) | 
2 | C[C@H]1COc2c(N3CCC4CCNCC4C3)c(F)cc3cc(C(=O)O)c(=O)n1c23 (single isomer, unassigned) [Example 1.29] | > 32 | > 32 | > 32 | > 32 | > 32 | > 32 | > 32 | 
3 | C[C@H]1COc2c(N3CCC4(CCC4N)CC3)c(F)cc3cc(C(=O)O)c(=O)n1c23 (single isomer, unassigned) [Example 1.32] | > 32 | > 32 | 1 to 32 (≈ 2.49 to 79.7 µM) | > 32 | 1 to 32 (≈ 2.49 to 79.7 µM) | > 32 | 1 to 32 (≈ 2.49 to 79.7 µM) | 
4 | C[C@H]1COc2c(N3CCC4(CC3)CC4N)c(F)cc3cc(C(=O)O)c(=O)n1c23 (single isomer, unassigned) [Example 1.33] | 1 to 32 (≈ 2.58 to 82.6 µM) | > 32 | 1 to 32 (≈ 2.58 to 82.6 µM) | > 32 | 1 to 32 (≈ 2.58 to 82.6 µM) | 1 to 32 (≈ 2.58 to 82.6 µM) | 1 to 32 (≈ 2.58 to 82.6 µM) | 
5 | C[C@H]1COc2c(N3CC4CNC4C3)c(F)cc3cc(C(=O)O)c(=O)n1c23 (single isomer, unassigned) [Example 1.39] | > 32 | > 32 | > 32 | > 32 | > 32 | > 32 | > 32 | 
6 | C[C@H]1COc2c(N3CCC4(CC4N)C3)c(F)cc3cc(C(=O)O)c(=O)n1c23 (single isomer, unassigned) [Example 1.42] | 1 to 32 (≈ 2.68 to 85.7 µM) | 1 to 32 (≈ 2.68 to 85.7 µM) | < 1 | 1 to 32 (≈ 2.68 to 85.7 µM) | < 1 | < 1 | 1 to 32 (≈ 2.68 to 85.7 µM) | 
7 | C[C@H]1COc2c(N3CCC(C(C)(C)N)C3)c(F)cc3cc(C(=O)O)c(=O)n1c23 (single isomer, unassigned) [Example 1.43] | 1 to 32 (≈ 2.57 to 82.2 µM) | > 32 | < 1 | 1 to 32 (≈ 2.57 to 82.2 µM) | < 1 | 1 to 32 (≈ 2.57 to 82.2 µM) | < 1 | 
8 | CCC(N)C1CCN(c2c(F)cc3cc(C(=O)O)c(=O)n4c3c2OC[C@@H]4C)C1 (single isomer, unassigned) [Example 1.45] | < 1 | > 32 | < 1 | 1 to 32 (≈ 2.57 to 82.2 µM) | < 1 | 1 to 32 (≈ 2.57 to 82.2 µM) | < 1 | 
9 | C[C@H]1COc2c(N3CCC(C4(N)CCC4)C3)c(F)cc3cc(C(=O)O)c(=O)n1c23 (single isomer, unassigned) [Example 1.46] | < 1 | > 32 | < 1 | 1 to 32 (≈ 2.49 to 79.7 µM) | < 1 | 1 to 32 (≈ 2.49 to 79.7 µM) | < 1 | 
10 | CC(N)C1(F)CCN(c2c(F)cc3cc(C(=O)O)c(=O)n4c3c2OC[C@@H]4C)C1 (single isomer, unassigned) [Example 1.47] | 1 to 32 (≈ 2.54 to 81.3 µM) | > 32 | < 1 | 1 to 32 (≈ 2.54 to 81.3 µM) | < 1 | 1 to 32 (≈ 2.54 to 81.3 µM) | 1 to 32 (≈ 2.54 to 81.3 µM) | 
11 | C[C@H]1COc2c(N3CC(CN)C4(CCOCC4)C3)c(F)cc3cc(C(=O)O)c(=O)n1c23 (single isomer, unassigned) [Example 1.48] | 1 to 32 (≈ 2.32 to 74.2 µM) | > 32 | < 1 | 1 to 32 (≈ 2.32 to 74.2 µM) | < 1 | > 32 | < 1 | 
12 | C[C@H]1COc2c(N3CC(CN)C4(CCC4)C3)c(F)cc3cc(C(=O)O)c(=O)n1c23 (single isomer, unassigned) [Example 1.49] | 1 to 32 (≈ 2.49 to 79.7 µM) | 1 to 32 (≈ 2.49 to 79.7 µM) | < 1 | 1 to 32 (≈ 2.49 to 79.7 µM) | < 1 | 1 to 32 (≈ 2.49 to 79.7 µM) | < 1 | 
13 | C[C@H]1COc2c(N3CC4CCCC4(CN)C3)c(F)cc3cc(C(=O)O)c(=O)n1c23 (single isomer, unassigned) [Example 1.50] | 1 to 32 (≈ 2.49 to 79.7 µM) | > 32 | < 1 | 1 to 32 (≈ 2.49 to 79.7 µM) | < 1 | > 32 | 1 to 32 (≈ 2.49 to 79.7 µM) | 
14 | C[C@H]1COc2c(N3CC4CC(N)C4C3)c(F)cc3cc(C(=O)O)c(=O)n1c23 (single isomer, unassigned) [Example 1.62] | > 32 | > 32 | 1 to 32 (≈ 2.68 to 85.7 µM) | > 32 | > 32 | > 32 | > 32 | 
15 | C[C@H]1COc2c(N3CC(N)C(CO)C3)c(F)cc3cc(C(=O)O)c(=O)n1c23 (single isomer, unassigned) [Example 1.77] | > 32 | > 32 | 1 to 32 (≈ 2.65 to 84.8 µM) | > 32 | 1 to 32 (≈ 2.65 to 84.8 µM) | > 32 | > 32 | 
16 | C[C@H]1COc2c(N3CC(CO)C(N(C)C)C3)c(F)cc3cc(C(=O)O)c(=O)n1c23 (single isomer, unassigned) [Example 1.78] | > 32 | > 32 | 1 to 32 (≈ 2.47 to 78.9 µM) | > 32 | 1 to 32 (≈ 2.47 to 78.9 µM) | 1 to 32 (≈ 2.47 to 78.9 µM) | > 32 | 
17 | CC1CCc2c(N3CC[C@@H](C4(N)CC4)C3)c(F)cc3cc(C(=O)O)c(=O)n1c23.O=C(O)C(F)(F)F (single isomer, unassigned) [Example 8] | < 1 | 1 to 32 | < 1 | < 1 |  | 1 to 32 | < 1 | < 1
18 | CC1Cc2c(N3CC[C@@H](C4(N)CC4)C3)c(F)cc3cc(C(=O)O)c(=O)n1c23.Cl (single isomer, unassigned) [Example 9.1] | < 1 | > 32 | < 1 | 1 to 32 |  | 1 to 32 | < 1 | < 1
19 | C[C@H]1COc2c(N3CCC4(CC4N)C3)c(F)c(F)c3cc(C(=O)O)c(=O)n1c23 (single isomer, unassigned) [Example 13.4] | 1 to 32 (≈ 2.56 to 81.8 µM) | 1 to 32 (≈ 2.56 to 81.8 µM) | < 1 | 1 to 32 (≈ 2.56 to 81.8 µM) | < 1 | < 1 | < 1 | 
20 | C[C@H]1COc2c(N3CC4CC4(N)C3)c(F)c(F)c3cc(C(=O)O)c(=O)n1c23 (single isomer, unassigned) [Example 13.6] | < 1 | > 32 | < 1 | 1 to 32 (≈ 2.65 to 84.8 µM) | < 1 | 1 to 32 (≈ 2.65 to 84.8 µM) | < 1 | 
21 | C[C@H]1COc2c(N3CC4C(N)C4C3)c(F)c(F)c3cc(C(=O)O)c(=O)n1c23 (single isomer, unassigned) [Example 13.7] | 1 to 32 (≈ 2.65 to 84.8 µM) | 1 to 32 (≈ 2.65 to 84.8 µM) | < 1 | 1 to 32 (≈ 2.65 to 84.8 µM) | < 1 | < 1 | < 1 | 
22 | C[C@H]1COc2c(N3CC[C@@H](C4(N)CC4)C3)c(F)cc3cc(C(=O)O)c(=O)n1c23.Cl [Example 1.1, (S)-10-((R)-3-(1-aminocyclopropyl)pyrrolidin-1-yl)-9-fluoro-3-methyl-5-oxo-2,3-dihydro-5H-[1,4]oxazino[2,3,4-ij]quinoline-6-carboxylic acid hydrochloride salt] | < 1 | > 32 | < 1 | 1 to 32 |  | 1 to 32 | < 1 | < 1
